Data reported in the supplement of paper PMC10307832.

Assays:
Experiment in all cases: relative viability (nuclei count vs DMSO), 5 days (fraction); higher = more cells survive
[1] = compound: C=CC(=O)N1CCC[C@@H](n2nc(-c3ccc(Oc4ccccc4)cc3)c3c(N)ncnc32)C1 [Ibrutinib] + CC(=O)c1c(C)c2cnc(Nc3ccc(N4CCNCC4)cn3)nc2n(C2CCCC2)c1=O [Palbociclib] (partner 0.5 µM)
Summary of the method: (§1)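 Lung cancer cell lines in 1536-well plates got either a single drug or a fixed anchor-drug dose together with five library-drug doses (not always all listed) in √10 steps, by pin tool, on the day after seeding. Nuclei were counted after 5 days, and relative viability is the treated-to-vehicle ratio of nuclei counts. Values are medians of duplicate plates.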

[2] = compound: C=CC(=O)Nc1cc(-n2c(=O)ccc3cnc4ccc(-c5ccc(NS(C)(=O)=O)cc5)cc4c32)ccc1C [BMX-IN-1] + N=C(N)NC(=N)NCCc1ccccc1 [Phenformin] (partner 250 µM)
Summary of the method: as §1

[3] = compound: C=CC(=O)N1CCC[C@@H](n2nc(-c3ccc(Oc4ccccc4)cc3)c3c(N)ncnc32)C1 [Ibrutinib] + COc1cccc2cc(-c3nc([C@H]4CC[C@H](C(=O)O)CC4)n4ncnc(N)c34)[nH]c12 [OSI-027] (partner 0.5 µM)
Summary of the method: as §1

[4] = compound: C=CC(=O)Nc1cc(-n2c(=O)ccc3cnc4ccc(-c5ccc(NS(C)(=O)=O)cc5)cc4c32)ccc1C [BMX-IN-1] + CC(=O)Nc1cccc(-n2c(=O)n(C3CC3)c(=O)c3c(Nc4ccc(I)cc4F)n(C)c(=O)c(C)c32)c1 [Trametinib] (partner 0.02 µM)
Summary of the method: as §1

Cell Line | relative viability ([1]; first compound 0.005 µM) | relative viability ([1]; first compound 0.01581 µM) | relative viability ([1]; first compound 0.05 µM) | relative viability ([1]; first compound 0.5 µM) | relative viability ([2]; first compound 0.02 µM) | relative viability ([2]; first compound 0.2 µM) | relative viability ([2]; first compound 0.6325 µM) | relative viability ([2]; first compound 2 µM) | relative viability ([3]; first compound 0.005 µM) | relative viability ([3]; first compound 0.01581 µM) | relative viability ([3]; first compound 0.05 µM) | relative viability ([3]; first compound 0.1581 µM) | relative viability ([3]; first compound 0.5 µM) | relative viability ([4]; first compound 0.02 µM) | relative viability ([4]; first compound 0.2 µM) | relative viability ([4]; first compound 0.6325 µM) | relative viability ([4]; first compound 2 µM) | relative viability ([1]; first compound 0.1581 µM)
A-427 | 0.549 | 0.533 | 0.491 | 0.496 | 0.192 | 0.324 | 0.348 | 0.37 | 0.36 | 0.431 | 0.512 | 0.369 | 0.499 | 0.691 | 0.727 | 0.79 | 0.722 | 
HCC-44 | 0.982 | 0.977 | 1.03 | 0.92 | 0.321 | 0.269 | 0.251 | 0.262 | 0.44 | 0.517 | 0.585 |  | 0.669 | 1.11 | 1.08 | 1.14 | 1.03 | 0.979
HCC-827 | 0.471 | 0.438 | 0.453 | 0.17 | 0.342 | 0.42 | 0.4 | 0.421 | 0.727 | 0.67 | 0.648 | 0.783 | 0.45 | 0.558 | 0.537 | 0.475 | 0.518 | 0.475
NCI-H1915 | 0.519 | 0.517 | 0.554 | 0.532 | 0.32 | 0.387 | 0.389 | 0.37 | 0.557 | 0.619 | 0.606 | 0.482 | 0.682 | 0.326 | 0.302 | 0.519 | 0.317 | 0.506
NCI-H322M | 0.472 | 0.463 | 0.479 | 0.399 | 0.867 | 0.821 | 0.795 | 0.791 | 0.482 | 0.564 | 0.513 | 0.507 | 0.488 | 0.501 | 0.504 | 0.532 | 0.443 | 0.469
EKVX | 0.304 | 0.314 | 0.259 | 0.155 | 0.21 | 0.245 | 0.247 | 0.211 | 0.644 | 0.663 | 0.763 | 0.737 | 0.511 | 0.308 | 0.39 | 0.375 | 0.369 | 0.269
EMC-BAC-2 | 0.509 | 0.493 | 0.566 | 0.497 | 0.553 | 0.573 | 0.56 | 0.515 | 0.33 | 0.352 | 0.403 | 0.426 | 0.405 | 0.827 | 0.906 | 0.96 | 1.04 | 
HCC-15 | 0.788 | 0.705 | 0.742 | 0.73 | 0.501 | 0.591 | 0.531 | 0.506 | 0.654 | 0.595 | 0.689 | 0.403 | 0.757 | 0.268 | 0.411 | 0.388 | 0.396 | 0.706
LXF-289 | 0.607 | 0.598 | 0.582 | 0.606 | 0.481 | 0.521 | 0.538 | 0.536 | 0.762 | 0.722 | 0.771 | 0.702 | 0.695 | 0.722 | 0.704 | 0.761 | 0.752 | 0.556
